Type in all cases: biochemical
One test addresses human α-thrombin (Homo sapiens (Human), UniProt P00734). The test is described as follows: Enzymatic assay for thrombin (Boc-VPR-AMC substrate).
Another test addresses MASP-2 (CCP1-CCP2-SP) (Homo sapiens (Human), UniProt O00187). The test is described as follows: biochemical.
In another test the target is mMASP-2 (Mus musculus (Mouse), UniProt Q91WP0). Kind of test: Enzymatic inhibition of mMASP-2. Conditions: read-out: mMASP-2 Ki.
Where [1] appears, read: selectivity for MASP-2 inhibition versus thrombin.

Structures can show the parent of a compound that is named as a salt. Where two headings read alike, the source gives them in different places.

Chain of mMASP-2 (Q91WP0 20-685): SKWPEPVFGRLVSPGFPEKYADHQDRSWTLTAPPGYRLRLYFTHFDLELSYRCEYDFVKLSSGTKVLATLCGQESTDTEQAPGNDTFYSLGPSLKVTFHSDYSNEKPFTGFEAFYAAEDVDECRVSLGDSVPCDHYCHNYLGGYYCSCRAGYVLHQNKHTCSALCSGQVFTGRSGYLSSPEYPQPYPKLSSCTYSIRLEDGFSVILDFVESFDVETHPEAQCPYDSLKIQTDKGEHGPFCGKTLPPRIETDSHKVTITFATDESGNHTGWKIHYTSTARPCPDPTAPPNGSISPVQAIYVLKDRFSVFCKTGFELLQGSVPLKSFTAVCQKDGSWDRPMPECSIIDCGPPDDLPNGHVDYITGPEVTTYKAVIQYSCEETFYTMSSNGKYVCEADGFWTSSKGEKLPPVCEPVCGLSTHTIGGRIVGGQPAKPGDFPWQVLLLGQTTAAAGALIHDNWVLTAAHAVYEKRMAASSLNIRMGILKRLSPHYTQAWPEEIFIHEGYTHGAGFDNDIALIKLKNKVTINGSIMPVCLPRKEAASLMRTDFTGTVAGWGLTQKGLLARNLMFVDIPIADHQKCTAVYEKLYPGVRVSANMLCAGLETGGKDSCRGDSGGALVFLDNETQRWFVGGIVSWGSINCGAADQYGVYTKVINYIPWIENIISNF
Chain of MASP-2 (CCP1-CCP2-SP) (O00187 445-686): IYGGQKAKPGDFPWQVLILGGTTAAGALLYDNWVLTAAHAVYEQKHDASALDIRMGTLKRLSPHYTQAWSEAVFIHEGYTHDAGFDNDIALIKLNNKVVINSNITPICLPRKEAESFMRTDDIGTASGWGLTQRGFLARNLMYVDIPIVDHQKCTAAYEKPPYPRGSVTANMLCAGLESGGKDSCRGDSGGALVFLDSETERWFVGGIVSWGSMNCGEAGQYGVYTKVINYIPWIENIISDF

What is called Ki is the dissociation constant of the complex between target and ligand, obtained from inhibition or displacement. For the compound `C[C@H](NC(=O)[C@@H](CCc1ccccc1)NCCc1ccccc1)C(=O)NCc1ccc(C(=N)N)cc1` [compound 1340, (R)—N—((S)-1-((4-Carbamimidoylbenzyl)amino)-1-oxopropan-2-yl)-2-(phenethylamino)-4-phenylbutanamide Dihydrochloride], the results for the Ki on human α-thrombin (read-out: Thrombin Ki), on MASP-2 (CCP1-CCP2-SP) (read-out: MASP-2 Ki) and at mMASP-2 were below 0.5 µM, below 500 nM and below 500 nM, respectively. For the same compound, at MASP-2 (CCP1-CCP2-SP) (setting [1]), the “MASP-2 vs. thrombin selectivity” value is “** (≥5.0 to <25-fold)”.
Take `C[C@H](NC(=O)[C@@H](CCc1ccccc1)NCc1ccc(N2CCOCC2)cc1)C(=O)NCc1ccc(C(=N)N)cc1` [compound 1149]: the Ki on human α-thrombin (read-out: Thrombin Ki) is below 0.5 µM; on MASP-2 (CCP1-CCP2-SP) (read-out: MASP-2 Ki), below 500 nM; at mMASP-2 it was below 500 nM. Besides, the “MASP-2 vs. thrombin selectivity” value on MASP-2 (CCP1-CCP2-SP) (MASP-2 inhibition versus thrombin) is given as “** (5.0 to 25-fold)”.
Regarding `CC(C)COC(=O)NC(=N)c1ccc(CNC(=O)[C@H](C)NC(=O)[C@H]2C[C@H](c3ccccc3)CN2)cc1` [compound 1293, Isobutyl (imino(4-(((S)-2-((2R,4R)-4-phenylpyrrolidine-2-carboxamido)propanamido)methyl)phenyl)methyl)carbamate], the Ki at human α-thrombin (read-out: Thrombin Ki) is above 25 µM; at MASP-2 (CCP1-CCP2-SP), 2500 to 10000 nM; on mMASP-2 it was 2500 to 10000 nM. Moreover, the “MASP-2 vs. thrombin selectivity” value at MASP-2 (CCP1-CCP2-SP) (setting [1]) was “* (≥1.0 to <5.0-fold)”.
With `C[C@H](NC(=O)[C@H]1C[C@H](c2ccccc2)CN1)C(=O)NCc1ccc(C(=N)N)c(F)c1` [compound 1300, (2R,4R)—N—((S)-1-((4-Carbamimidoyl-3-fluorobenzyl)amino)-1-oxopropan-2-yl)-4-phenylpyrrolidine-2-carboxamide Di-trifluoroacetate salt], the results for the Ki at human α-thrombin (Thrombin Ki (μM)), at MASP-2 (CCP1-CCP2-SP) (read-out: MASP-2 Ki) and on mMASP-2 were 2.5 to 10 µM, below 500 nM and below 500 nM, respectively. On MASP-2 (CCP1-CCP2-SP) (setting [1]), the “MASP-2 vs. thrombin selectivity” value is “*** (≥25 to <100-fold)”.
As to `C[C@H](NC(=O)[C@H]1C[C@H](c2ccccc2)CN1)C(=O)NCc1ccc(C(=N)N)nc1` [compound 1272, (2R,4R)—N—((S)-1-(((6-Carbamimidoylpyridin-3-yl)methyl)amino)-1-oxopropan-2-yl)-4-phenylpyrrolidine-2-carboxamide], the Ki at human α-thrombin (Thrombin Ki (μM)) is 0.5 to 2.5 µM; at MASP-2 (CCP1-CCP2-SP) (read-out: MASP-2 Ki), below 500 nM; at mMASP-2, below 500 nM. For the same compound, the “MASP-2 vs. thrombin selectivity” value on MASP-2 (CCP1-CCP2-SP) (setting [1]) is “*** (≥25 to <100-fold)”.
Consider `Cc1nc(N)ccc1CNC(=O)[C@H](C)NC(=O)[C@@H]1C[C@H](Cc2ccccc2)CCN1` [compound 1354, (2S,4R)—N—((S)-1-(((6-Amino-2-methylpyridin-3-yl)methyl)amino)-1-oxopropan-2-yl)-4-benzylpiperidine-2-carboxamide Dihydrochloride], for which the Ki is 2.5 to 10 µM on human α-thrombin (Thrombin Ki (μM)), below 500 nM at MASP-2 (CCP1-CCP2-SP) (read-out: MASP-2 Ki) and 500 to 2500 nM on mMASP-2. Also, the “MASP-2 vs. thrombin selectivity” value at MASP-2 (CCP1-CCP2-SP) (setting [1]) is recorded as “*** (≥25 to <100-fold)”.
In the case of `Cc1cc(Br)cc(CNC(=O)[C@H](C)NC(=O)[C@H]2C[C@H](Cc3ccccc3)CN2)c1-n1cnnn1` [compound 1436, (2R,4S)-4-Benzyl-N-((S)-1-((5-bromo-3-methyl-2-(1H-tetrazol-1-yl)benzyl)amino)-1-oxopropan-2-yl)pyrrolidine-2-carboxamide Trifluoroacetate], the Ki on human α-thrombin (Thrombin Ki (μM)) was 10 to 25 µM; at MASP-2 (CCP1-CCP2-SP), 500 to 2500 nM; on mMASP-2, above 25000 nM. Besides, at MASP-2 (CCP1-CCP2-SP) (setting [1]), the “MASP-2 vs. thrombin selectivity” value is on record as “** (≥5.0 to <25-fold)”.
For the compound `CC(C)c1cccc([C@H]2CN[C@@H](C(=O)N[C@@H](C)C(=O)NCc3ccc(C(=N)N)cc3)C2)c1` [compound 1316, (2R,4S)—N—((S)-1-((4-Carbamimidoylbenzyl)amino)-1-oxopropan-2-yl)-4-(3-isopropylphenyl)pyrrolidine-2-carboxamide Dihydrochloride], the Ki at human α-thrombin (Thrombin Ki (μM)) is 0.5 to 2.5 µM; at MASP-2 (CCP1-CCP2-SP) (read-out: MASP-2 Ki), below 500 nM; on mMASP-2, below 500 nM. Moreover, the “MASP-2 vs. thrombin selectivity” value at MASP-2 (CCP1-CCP2-SP) (setting [1]) is reported as “*** (≥25 to <100-fold)”.
As to `C[C@H](NC(=O)[C@H]1C[C@H](c2ccccc2)CN1)C(=O)NCC1CCc2nc(N)sc2C1` (stereo partly drawn) [compound 1281, (2R,4R)—N-((2S)-1-(((2-Amino-4,5,6,7-tetrahydrobenzo[d]thiazol-6-yl)methyl)amino)-1-oxopropan-2-yl)-4-phenylpyrrolidine-2-carboxamide], the Ki was above 25 µM at human α-thrombin (read-out: Thrombin Ki), 2500 to 10000 nM at MASP-2 (CCP1-CCP2-SP) and above 25000 nM on mMASP-2.
On to `Cc1nc(N)ccc1CNC(=O)[C@H](C)NC(=O)[C@H]1C[C@H](Cc2ccc(-c3cccnc3)cc2)CN1` [compound 1357, (2R,4S)—N—((S)-1-(((6-Amino-2-methylpyridin-3-yl)methyl)amino)-1-oxopropan-2-yl)-4-(4-(pyridin-3-yl)benzyl)pyrrolidine-2-carboxamide Di-trifluoroacetate salt], for which the results for the Ki on human α-thrombin (read-out: Thrombin Ki), on MASP-2 (CCP1-CCP2-SP) (read-out: MASP-2 Ki) and on mMASP-2 were above 25 µM, below 500 nM and below 500 nM, respectively. Moreover, the “MASP-2 vs. thrombin selectivity” value at MASP-2 (CCP1-CCP2-SP) (setting [1]) is recorded as “**** (≥100-fold)”.
With `Cc1cnc(NCCc2ccccc2)c(=O)n1CC(=O)NCc1cc(Cl)ccc1-n1cnnn1` [compound 1489, N-(5-Chloro-2-(1H-tetrazol-1-yl)benzyl)-2-(6-methyl-2-oxo-3-(phenethylamino)pyrazin-1(2H)-yl)acetamide], the values for the Ki on human α-thrombin (read-out: Thrombin Ki), at MASP-2 (CCP1-CCP2-SP) (read-out: MASP-2 Ki) and on mMASP-2 were below 0.5 µM, below 500 nM and 500 to 2500 nM, respectively. Moreover, at MASP-2 (CCP1-CCP2-SP) (setting [1]), the “MASP-2 vs. thrombin selectivity” value is listed as “−− (<1.0-fold)”.
Turning to `CC(=O)Nc1ccc(Cl)cc1CNC(=O)[C@H](C)NC(=O)[C@H]1C[C@H](c2ccccc2)CN1` [compound 1269, (2R,4R)—N—((S)-1-((2-Acetamido-5-chlorobenzyl)amino)-1-oxopropan-2-yl)-4-phenylpyrrolidine-2-carboxamide], the Ki at human α-thrombin (read-out: Thrombin Ki) was above 25 µM; at MASP-2 (CCP1-CCP2-SP) it was 500 to 2500 nM; on mMASP-2 it was 10000 to 25000 nM. Besides, the “MASP-2 vs. thrombin selectivity” value at MASP-2 (CCP1-CCP2-SP) (setting [1]) is given as “** (≥5.0 to <25-fold)”.
Consider `Cc1nc(N)ccc1CNC(=O)[C@H](C)NC(=O)[C@@H](CCc1ccccc1)NCc1ccc(C(=O)N2CCOCC2)cc1` [compound 1381, (R)—N—((S)-1-(((6-Amino-2-methylpyridin-3-yl)methyl)amino)-1-oxopropan-2-yl)-2-((4-(morpholine-4-carbonyl)benzyl)amino)-4-phenylbutanamide Di-trifluoroacetate salt], for which the Ki lay within 10 to 25 µM on human α-thrombin (Thrombin Ki (μM)), 500 to 2500 nM at MASP-2 (CCP1-CCP2-SP) and 10000 to 25000 nM on mMASP-2. Besides, the “MASP-2 vs. thrombin selectivity” value at MASP-2 (CCP1-CCP2-SP) (setting [1]) was “** (≥5.0 to <25-fold)”.
Turning to `Cc1nc(N)ccc1CNC(=O)[C@H](C)NC(=O)[C@H]1C[C@@H](c2ccccc2)CCN1CCCCCC(=O)O` [compound 1412, 6-((2R,4S)-2-(((S)-1-(((6-Amino-2-methylpyridin-3-yl)methyl)amino)-1-oxopropan-2-yl)carbamoyl)-4-phenylpiperidin-1-yl)hexanoic acid Trifluoroacetate salt], the Ki was above 25 µM on human α-thrombin (read-out: Thrombin Ki), below 500 nM on MASP-2 (CCP1-CCP2-SP) (read-out: MASP-2 Ki) and 2500 to 10000 nM at mMASP-2.
`COc1cc(CNC(=O)[C@H](C)NC(=O)[C@H](N)CCc2ccccc2)cnc1N` [compound 1266, (R)-2-Amino-N—((S)-1-(((6-amino-5-methoxypyridin-3-yl)methyl)amino)-1-oxopropan-2-yl)-4-phenylbutanamide]: the Ki on human α-thrombin (read-out: Thrombin Ki) was above 25 µM; at MASP-2 (CCP1-CCP2-SP), 500 to 2500 nM; on mMASP-2, above 25000 nM. In addition, at MASP-2 (CCP1-CCP2-SP) (setting [1]), the “MASP-2 vs. thrombin selectivity” value is recorded as “** (≥5.0 to <25-fold)”.

Values taken from patent US11584714B2 (priority 2018, dated 2023).
